Consider eleven compounds from PubChem BioAssay (NCI).

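Dose response: 5 concentrations. Exposure: 48 h. Format: 96-well plates. Endpoint: linear interpolation; highest concentration if not reached. GI50 marks 50% less growth. The concentration for full growth arrest is given as TGI.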

Holding throughout (experiment): NCI-60 cell line screen, 48 h
Test [1] relates to A549 NSCLC.
Test [2] concerns CAKI-1 renal.
The test system of test [3] is CCRF-CEM leukemia.
The test system of test [4] is HT29 colon.
Test [5] has as its system M14 melanoma.
Test [6] concerns NCI-H23 lung.
The subject of test [7] is NCI-H460 lung.
The subject of test [8] is OVCAR-5 ovarian.
The test system of test [9] is SK-OV-3 ovarian.
Test [10] relates to UACC-257 melanoma.

In the case of `NC1=C(Cl)C(=O)c2ccc(S(N)(=O)=O)cc2C1=O`, the GI50 in test [1] is 0.16 µM; in test [2], 0.82 µM; in test [3] it was 0.374 µM; in test [4] it was 0.715 µM; in [5], 0.134 µM; in [6], 0.176 µM. Moreover, the GI50 in [7] is 0.21 µM; in test [8] it was 0.251 µM; in test [9] it was 1.67 µM; in test [10] it was 0.128 µM. In addition, the TGI in test [1] came out at 0.358 µM; in test [2], 2.28 µM; in test [3], 2.77 µM; in test [4], 2.91 µM; in test [5], 0.278 µM; in test [6] it was 0.517 µM. The TGI in test [7] was found to be 0.487 µM; in [8], 0.658 µM; in test [9], 3.11 µM; in test [10] it was 0.267 µM.
Take `O=C1N=C(c2ccccc2)OC1C(=O)c1ccccc1` (centres undefined): the TGI in test [1], in [2], in test [3], in test [4], in test [5] and in [6] was above 100 µM each time. The TGI in test [7], in test [8], in test [9] and in test [10] was above 100 µM in each case.
In the case of `O=C1C(=O)c2ccccc2-c2ccccc21`, the GI50 in test [1] is 2.48 µM; in test [2], 1.75 µM; in test [3], 1.5 µM; in test [4], 3.4 µM; in test [5], 1.76 µM; in [6], 1.68 µM. The GI50 in test [7] was 1.92 µM; in test [8] it was 1.75 µM; in [9] it was 1.73 µM; in test [10], 1.52 µM. For the same compound, the TGI was 6.54 µM in test [1]; 3.34 µM in test [2]; 4.85 µM in test [3]; above 100 µM in [4]; 3.29 µM in [5]; 3.99 µM in test [6]. Moreover, the TGI stood at 3.99 µM in [7], 3.52 µM in [8], 3.25 µM in test [9] and 3.07 µM in [10].
As for `N#CC(=S)Nc1ccc(Cl)c(Cl)c1`, the TGI in test [1] was above 100 µM; in test [2] it was 55.1 µM; in [3], 15.2 µM; in test [4], 55.4 µM; in test [5], above 60.6 µM; in [6] it was above 59.2 µM. Also, the TGI was above 100 µM in [7], 55.9 µM in [8], 61.6 µM in test [9] and above 54.7 µM in test [10]. For the same compound, in test [7], the GI50 was 16 µM.
As to `Oc1ccc(CNCc2ccccc2)c2cccnc12`, the TGI in test [1] was above 100 µM; in test [2], above 100 µM; in [3], 0.343 µM; in test [4] it was above 100 µM; in [5] it was 12 µM; in [6], above 100 µM. Besides, the TGI in test [7] was 0.184 µM; in test [8], 99.2 µM; in [9] it was above 76.9 µM; in test [10], 0.816 µM.
In the case of `NC(=O)N/N=C(\C(=O)C(=O)Nc1ccc(Cl)c(C(F)(F)F)c1)c1nc2ccc(C(=O)c3ccccc3)cc2[nH]c1=O`, the TGI in test [1], in test [2], in test [3], in test [4], in test [5] and in [6] was above 100 µM in each case. Also, the TGI in [7], in test [8], in test [9] and in test [10] was above 100 µM throughout.
On to `O=C(O)C1NCCc2c1[nH]c1ccccc21` (centres undefined), for which the GI50 in test [1], in test [2], in [3], in test [4], in test [5] and in test [6] was above 100 µM each time. The GI50 in test [9] and in test [10] was above 100 µM in each case. Moreover, the TGI in [1], in test [2], in test [3], in test [4], in test [5] and in [6] was above 100 µM each time. The TGI in test [7], in [8], in test [9] and in test [10] was above 100 µM throughout.
On to `Nc1ncnc(NC2C=C(CO)C(O)C2O)c1[N+](=O)[O-]` (centres undefined), for which the TGI in test [1], in test [2], in test [3], in [4], in [5] and in test [6] was above 100 µM each time. The TGI in test [7], in test [8], in test [9] and in test [10] was above 100 µM throughout.
With `CC(C)NCC(O)COC(=O)c1cccs1` (centres undefined), the TGI in test [1], in test [2], in test [3], in [4], in [5] and in test [6] was above 100 µM each time. Also, the TGI in [7], in test [8], in test [9] and in test [10] was above 100 µM throughout.
For the compound `Cc1cccc2c(N=Nc3ccc(S(N)(=O)=O)cc3)c(O)[nH]c12`, the GI50 in test [1], in test [2], in test [3], in test [4], in test [5] and in test [6] was above 25 µM throughout. For the same compound, the GI50 in test [7], in test [8], in test [9] and in [10] was above 25 µM each time. Further, the TGI in test [1], in [2], in test [3], in [4], in test [5] and in [6] was above 25 µM throughout. For the same compound, the TGI in test [7], in [8], in test [9] and in test [10] was above 25 µM throughout.
In the case of `COC(=O)/C(C#N)=C1\CCC(O)N1C` (centres undefined), the TGI in test [1], in test [2], in test [3], in [4], in test [5] and in test [6] was above 100 µM throughout. Also, the TGI in [7], in [8], in test [9] and in [10] was above 100 µM throughout.
